pEC50: −log10 of the molar value.
Key:
Format in all cases: biochemical
JAK2 = target: T1, JAK2 (Homo sapiens, UniProt O60674); experiment: JAK kinase assay (HTRF, phosphorylation of synthetic peptide), JAK2; settings: catalytic domain, ATP at Km (4 μM); read-out: JAK2 kinase inhibitory activity (EC50)
T1 construct: All four purified enzymes contain only the catalytic domain; His (N); purchased Carna Biosciences, Inc; host or cells: baculovirus expression system
Description: (§1) Human baculovirus-expressed JAK1, 2, 3 and TYK2 were purchased from Carna Biosciences, Inc. All four purified enzymes contain only the catalytic domain. JAK1 (aa 850-1154) and TYK2 (aa 871-1187) are expressed with an N-terminally fused GST-tag, and JAK2 and JAK3 with an N-terminally fused His-tag.
(§2) Inhibition of phosphorylation of a synthetic peptide was measured in an HTRF-based assay using the TK substrate-Biotin from the Cisbio HTRFKinEASE TK kit. First, 2 μl of TK solution (TK substrate-biotin in kinase buffer [1× enzymatic buffer from HTRFKinEASE TK kit, 1 mM DTT]) is added to a plate containing 1 μl prediluted compound (final assay concentration DMSO: 0.75%). Then, 5 μl kinase-ATP mix (prepared in kinase buffer) is added to the wells and the plates are incubated at RT for 20-30 min. For all four kinases a concentration of ATP that corresponded to the Km for ATP was used. The final concentrations of buffers, substrate, kinase and ATP were: JAK1: 50 mM Hepes buffer pH 7.0, 0.01% BSA, 10 mM MgCl2, 1 mM DTT, 7 μM ATP, 50 nM SEB, 1 μM TK Substrate-Biotin and 5 ng JAK1; JAK2: 50 mM Hepes buffer pH 7.0, 0.01% BSA, 5 mM MgCl2, 1 mM DTT, 4 μM ATP, 1 μM TK Substrate-Biotin and 0.1 ng JAK2; JAK3: 50 mM Hepes buffer pH 7.0, 0.01% BSA, 5 mM MgCl2, 1 mM DTT, 2 μM ATP, 1 μM TK Substrate-Biotin and 0.3 ng JAK3; TYK2: 50 mM Hepes buffer pH 7.0, 0.01% BSA, 5 mM MgCl2, 1 mM DTT, 13 μM ATP, 50 nM SEB, 1 μM TK Substrate-Biotin and 0.8 ng TYK2. Thereafter, the kinase reaction is stopped by adding 4 μl detection mix (final concentrations: 50 mM Hepes buffer pH 7.0, 0.01% BSA, 0.8 M KF, 20 mM EDTA, 42 nM Streptavidin-XL665 and 1:400 STK Ab Cryptate) and the plates are incubated overnight in the dark. The HTRF signal is read using an Envision plate reader.

TYK2 = target: T2, TYK2 (Homo sapiens, UniProt P29597); experiment: JAK kinase assay (HTRF, phosphorylation of synthetic peptide), TYK2; settings: catalytic domain, ATP at Km (13 μM); read-out: TYK2 kinase inhibitory activity (EC50)
T2 construct: JAK1 (aa 850-1154) and TYK2 (aa 871-1187) are expressed with an N-terminally fused GST-tag; GST (N); purchased Carna Biosciences, Inc; host or cells: baculovirus expression system
T2 sequence (P29597 871-1187): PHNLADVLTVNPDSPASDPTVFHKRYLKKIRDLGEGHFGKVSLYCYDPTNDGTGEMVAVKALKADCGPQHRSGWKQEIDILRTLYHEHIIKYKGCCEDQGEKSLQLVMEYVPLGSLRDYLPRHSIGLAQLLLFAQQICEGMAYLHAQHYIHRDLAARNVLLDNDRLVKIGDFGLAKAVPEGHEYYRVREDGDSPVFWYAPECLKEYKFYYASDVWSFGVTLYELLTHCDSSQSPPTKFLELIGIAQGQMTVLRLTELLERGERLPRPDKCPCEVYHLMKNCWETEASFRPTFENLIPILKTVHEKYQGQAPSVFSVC
Description: as §1, §2

JAK1 = target: T3, JAK1 (Homo sapiens, UniProt P23458); experiment: JAK kinase assay (HTRF, phosphorylation of synthetic peptide), JAK1; settings: catalytic domain, ATP at Km (7 μM); read-out: JAK1 kinase inhibitory activity (EC50)
T3 construct: JAK1 (aa 850-1154) and TYK2 (aa 871-1187) are expressed with an N-terminally fused GST-tag; GST (N); purchased Carna Biosciences, Inc; host or cells: baculovirus expression system
Description: as §1, §2

JAK3 = target: T4, JAK3 (Homo sapiens, UniProt P52333); experiment: JAK kinase assay (HTRF, phosphorylation of synthetic peptide), JAK3; settings: catalytic domain, ATP at Km (2 μM); read-out: JAK3 kinase inhibitory activity (EC50)
T4 construct: All four purified enzymes contain only the catalytic domain; His (N); purchased Carna Biosciences, Inc; host or cells: baculovirus expression system
Description: as §1, §2

T1 sequence (O60674 849-1124 limits assumed): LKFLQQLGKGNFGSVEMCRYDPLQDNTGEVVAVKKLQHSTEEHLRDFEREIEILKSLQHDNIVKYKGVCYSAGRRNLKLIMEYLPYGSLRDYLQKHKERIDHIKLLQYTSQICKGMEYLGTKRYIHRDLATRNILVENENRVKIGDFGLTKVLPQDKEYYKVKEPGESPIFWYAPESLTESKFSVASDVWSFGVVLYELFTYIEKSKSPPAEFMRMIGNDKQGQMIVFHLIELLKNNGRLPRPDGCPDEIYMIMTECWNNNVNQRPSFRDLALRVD
T4 sequence (P52333 822-1111 limits assumed): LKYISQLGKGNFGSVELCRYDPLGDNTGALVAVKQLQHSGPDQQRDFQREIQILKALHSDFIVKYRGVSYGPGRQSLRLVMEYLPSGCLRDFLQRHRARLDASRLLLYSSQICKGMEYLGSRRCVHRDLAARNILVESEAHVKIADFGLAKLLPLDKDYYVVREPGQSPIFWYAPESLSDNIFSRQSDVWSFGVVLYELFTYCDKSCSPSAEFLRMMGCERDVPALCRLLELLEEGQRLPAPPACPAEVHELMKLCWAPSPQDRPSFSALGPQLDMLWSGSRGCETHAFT
T3 sequence (P23458 850-1154): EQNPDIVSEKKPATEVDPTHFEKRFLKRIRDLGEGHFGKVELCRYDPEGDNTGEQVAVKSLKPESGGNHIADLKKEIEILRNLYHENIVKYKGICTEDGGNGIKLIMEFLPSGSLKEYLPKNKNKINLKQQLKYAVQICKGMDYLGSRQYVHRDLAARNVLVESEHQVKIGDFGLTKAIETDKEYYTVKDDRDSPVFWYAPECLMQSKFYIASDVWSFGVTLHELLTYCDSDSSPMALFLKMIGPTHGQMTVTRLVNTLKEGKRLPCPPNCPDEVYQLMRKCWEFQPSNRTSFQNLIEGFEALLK

| Compound | pEC50 (JAK2) | pEC50 (TYK2) | pEC50 (JAK1) | pEC50 (JAK3) |
| --- | --- | --- | --- | --- |
| O=S(=O)(N(CCc1ccccc1)CC1CCCCC1)N1CCN(c2ncnc3[nH]ccc23)CC12CC2 [Example 8, 7-(7H-Pyrrolo[2,3-d]pyrimidin-4-yl)-4,7-diaza-spiro[2.5]octane-4-sulfonic acid cyclohexylmethyl-phenethyl-amide] | < 6.30 | < 6.30 | < 6.30 | < 6.30 |
| CN(Cc1cccc(S(N)(=O)=O)c1)S(=O)(=O)N1CCN(c2ncnc3[nH]ccc23)CC12CC2 [Example 90, N-methyl-5-(7H-pyrrolo[2,3-d]pyrimidin-4-yl)-N-[(3-sulfamoylphenyl)methyl]-5,8-diazaspiro[2.5]octane-8-sulfonamide] | > 7.00 | > 7.00 | > 7.00 | > 7.00 |
| CN(C[C@@H]1CCC(=O)N1)S(=O)(=O)N1CCN(c2ncnc3[nH]ccc23)CC12CC2 [Example 183, N-methyl-N-[[(2S)-5-oxopyrrolidin-2-yl]methyl]-5-(7H-pyrrolo[2,3-d]pyrimidin-4-yl)-5,8-diazaspiro[2.5]octane-8-sulfonamide] | > 7.00 | > 7.00 | > 7.00 | > 7.00 |
| CC(=O)N(CC1CCS(=O)(=O)CC1)S(=O)(=O)N1CCN(c2ncnc3[nH]ccc23)CC12CC2 [Example 173, N-[(1,1-dioxothian-4-yl)methyl]-N-[[5-(7H-pyrrolo[2,3-d]pyrimidin-4-yl)-5,8-diazaspiro[2.5]octan-8-yl]sulfonyl]acetamide] | > 7.00 | 6.30 to 7.00 | > 7.00 | > 7.00 |
| CN(C)CCCN(C1CCC1)S(=O)(=O)N1CCN(c2ncnc3[nH]ccc23)CC12CC2 [Example 105, N-cyclobutyl-N-[3-(dimethylamino)propyl]-5-(7H-pyrrolo[2,3-d]pyrimidin-4-yl)-5,8-diazaspiro[2.5]octane-8-sulfonamide] | > 7.00 | < 6.30 | 6.30 to 7.00 | < 6.30 |
| CN(CC1CCC1)S(=O)(=O)N1CCN(c2ncnc3[nH]ccc23)CC12CC2 [Example 60, N-(cyclobutylmethyl)-N-methyl-5-(7H-pyrrolo[2,3-d]pyrimidin-4-yl)-5,8-diazaspiro[2.5]octane-8-sulfonamide] | > 7.00 | > 7.00 | > 7.00 | > 7.00 |
| O=S(=O)(N(CCO)C1CCC1)N1CCN(c2ncnc3[nH]ccc23)CC12CC2 [Example 101, N-cyclobutyl-N-(2-hydroxyethyl)-5-(7H-pyrrolo[2,3-d]pyrimidin-4-yl)-5,8-diazaspiro[2.5]octane-8-sulfonamide] | > 7.00 | > 7.00 | > 7.00 | > 7.00 |
| O=S(=O)(N(CCO)CCc1ccccc1)N1CCN(c2ncnc3[nH]ccc23)CC12CC2 [Example 25, 7-(7H-Pyrrolo[2,3-d]pyrimidin-4-yl)-4,7-diaza-spiro[2.5]octane-4-sulfonic acid (2-hydroxy-ethyl)-phenethyl-amide] | > 7.00 | > 7.00 | > 7.00 | > 7.00 |
| O=S(=O)(N1CCCCC1)N1CCN(c2ncnc3[nH]ccc23)CC12CC2 [Example 38, 4-[4-(Piperidine-1-sulfonyl)-4,7-diaza-spiro[2.5]oct-7-yl]-7H-pyrrolo[2,3-d]pyrimidine] | > 7.00 | 6.30 to 7.00 | 6.30 to 7.00 | 6.30 to 7.00 |
| CN(Cc1ccccc1F)S(=O)(=O)N1CCN(c2ncnc3[nH]ccc23)CC12CC2 [Example 77, N-[(2-fluorophenyl)methyl]-N-methyl-5-(7H-pyrrolo[2,3-d]pyrimidin-4-yl)-5,8-diazaspiro[2.5]octane-8-sulfonamide] | > 7.00 | 6.30 to 7.00 | > 7.00 | 6.30 to 7.00 |
| CN(Cc1cccc(F)c1)S(=O)(=O)N1CCN(c2ncnc3[nH]ccc23)CC12CC2 [Example 78, N-[(3-fluorophenyl)methyl]-N-methyl-5-(7H-pyrrolo[2,3-d]pyrimidin-4-yl)-5,8-diazaspiro[2.5]octane-8-sulfonamide] | > 7.00 | 6.30 to 7.00 | > 7.00 | > 7.00 |
| O=S(=O)(N(CCc1ccccc1)CC1CCCCO1)N1CCN(c2ncnc3[nH]ccc23)CC12CC2 (centres unmarked) [Example 21, 7-(7H-Pyrrolo[2,3-d]pyrimidin-4-yl)-4,7-diaza-spiro[2.5]octane-4-sulfonic acid phenethyl-(tetrahydro-pyran-2-ylmethyl)-amide] | > 7.00 | < 6.30 | > 7.00 | 6.30 to 7.00 |
| CN(C(=O)C1CCC(F)(F)CC1)S(=O)(=O)N1CCN(c2ncnc3[nH]ccc23)CC12CC2 [Example 130, 4,4-difluoro-N-methyl-N-[[5-(7H-pyrrolo[2,3-d]pyrimidin-4-yl)-5,8-diazaspiro[2.5]octan-8-yl]sulfonyl]cyclohexanecarboxamide] | > 7.00 | 6.30 to 7.00 | > 7.00 | > 7.00 |

The next lines start with the values.

| pEC50 (JAK2) | pEC50 (TYK2) | pEC50 (JAK1) | pEC50 (JAK3) | Compound |
| --- | --- | --- | --- | --- |
| > 7.00 | 6.30 to 7.00 | > 7.00 | 6.30 to 7.00 | CN(C(=O)CC(F)(F)F)S(=O)(=O)N1CCN(c2ncnc3[nH]ccc23)CC12CC2 [Example 129, 3,3,3-trifluoro-N-methyl-N-[[5-(7H-pyrrolo[2,3-d]pyrimidin-4-yl)-5,8-diazaspiro[2.5]octan-8-yl]sulfonyl]propanamide] |
| > 7.00 | > 7.00 | > 7.00 | > 7.00 | CN(Cc1ccc(S(C)(=O)=O)cc1)S(=O)(=O)N1CCN(c2ncnc3[nH]ccc23)CC12CC2 [Example 83, N-methyl-N-[(4-methylsulfonylphenyl)methyl]-5-(7H-pyrrolo[2,3-d]pyrimidin-4-yl)-5,8-diazaspiro[2.5]octane-8-sulfonamide] |
| > 7.00 | < 6.30 | 6.30 to 7.00 | < 6.30 | O=S(=O)(N1CCN(c2ncnc3[nH]ccc23)CC12CC2)n1ccnc1 [Int 15] |
| > 7.00 | < 6.30 | > 7.00 | 6.30 to 7.00 | O=S(=O)(N(CCO)C1COC1)N1CCN(c2ncnc3[nH]ccc23)CC12CC2 [Example 116, N-(2-hydroxyethyl)-N-(oxetan-3-yl)-5-(7H-pyrrolo[2,3-d]pyrimidin-4-yl)-5,8-diazaspiro[2.5]octane-8-sulfonamide] |
| > 7.00 | 6.30 to 7.00 | > 7.00 | > 7.00 | CN(C[C@@H]1CCCN1C(=O)CCO)S(=O)(=O)N1CCN(c2ncnc3[nH]ccc23)CC12CC2 [Example 193, N-[[(2S)-1-(3-hydroxypropanoyl)pyrrolidin-2-yl]methyl]-N-methyl-5-(7H-pyrrolo[2,3-d]pyrimidin-4-yl)-5,8-diazaspiro[2.5]octane-8-sulfonamide] |
| > 7.00 | 6.30 to 7.00 | > 7.00 | > 7.00 | COCCN(CCc1ccccc1)S(=O)(=O)N1CCN(c2ncnc3[nH]ccc23)CC12CC2 [Example 22, 7-(7H-Pyrrolo[2,3-d]pyrimidin-4-yl)-4,7-diaza-spiro[2.5]octane-4-sulfonic acid (2-methoxy-ethyl)-phenethyl-amide] |
| > 7.00 | 6.30 to 7.00 | > 7.00 | > 7.00 | O=S(=O)(NC1COC1)N1CCN(c2ncnc3[nH]ccc23)CC12CC2 [Int 41] |

Reference: patent US9233964B2, “Sulfamide piperazine derivatives as protein tyrosine kinase inhibitors and pharmaceutical use therof” (LEO PHARMA A/S, priority 2011, dated 2016)
